system: collagen and epinephrine induced thrombosis in mice; test: Effect on mouse thrombosis: collagen and adrenaline induced pulmonary thromboembolism; assay type: in vivo; details: 30 μM/kg orally 60 min prior to collagen + adrenaline challenge
Experimental: Pulmonary thromboembolism was induced by following a method of Diminno and Silver^(1). Test compounds (30 μM/Kg) or vehicle were administered orally 60 min prior to the thrombotic challenge. A mixture of collagen (150 μg/ml) and adrenaline (50 μg/mL) was administered by the rapid intravenous injection into the tail vein to induce hind limb paralysis or death. A group of 10 animals were used to evaluate the effect of test compound, while 5 mice were used to assess effect of a standard drug, aspirin and a group of vehicle treated (n=5) mice was also used each experiment.
% Protection was expressed as: […]
Ptest is the number of animals paralyzed/dead in the test compound-treated group, and Pcontrol is the number of animals paralyzed/dead in vehicle treated group.

SMILES	Antithrombotic activity (AT) (% protection)
NC(=O)C1Cc2c([nH]c3ccccc23)CN1S(=O)(=O)c1ccc(F)cc1 (stereo not shown) [s, 2[-4-fluorobenzenesulfonyl]-1,2,3,4,-tetrahydro-9H-pyrido[3,4-b]indole-3-carboxylic acid amide]	60%
COC(=O)C1Cc2c([nH]c3ccccc23)CN1S(=O)(=O)c1c(C(C)C)cc(C(C)C)cc1C(C)C (racemic) [h, 2[2,4,6 triisopropylbenzenesulfonyl]-1,2,3,4,-tetrahydro-9H-pyrido[3,4-b]indole-3-carboxylic acid ester]	0%
COC(=O)C1Cc2c([nH]c3ccccc23)CN1S(=O)(=O)c1cccc2cccnc12 (racemic) [f, 2[8-quinolinesulfonyl]-1,2,3,4,-tetrahydro-9H-pyrido[3,4-b]indole-3-carboxylic acid ester]	20%
CS(=O)(=O)N1Cc2[nH]c3ccccc3c2CC1C(N)=O (stereo not shown) [t, 2[methanesulfonyl]-1,2,3,4,-tetrahydro-9H-pyrido[3,4-b]indole-3-carboxylic acid amide]	30%
COC(=O)C1Cc2c([nH]c3ccccc23)CN1S(=O)(=O)c1c(C)cc(C)cc1C (racemic) [b, 2[2,4,6, trimethylbenzenesulfonyl]-1,2,3,4,-tetrahydro-9H-pyrido[3,4-b]indole-3-carboxylic acid ester]	20%
NC(=O)C1Cc2c([nH]c3ccccc23)CN1S(=O)(=O)c1cccc2ccccc12 (stereo not shown) [q, 2[-1-naphthylsulfonyl]-1,2,3,4,-tetrahydro-9H-pyrido[3,4-b]indole-3-carboxylic acid amide]	20%
NC(=O)C1Cc2c([nH]c3ccccc23)CN1S(=O)(=O)c1cccc([N+](=O)[O-])c1 (stereo not shown) [u]	45%
NC(=O)C1Cc2c([nH]c3ccccc23)CN1S(=O)(=O)c1cccc2cccnc12 (stereo not shown) [r, 2[8-quinolinesulfonyl]-1,2,3,4,-tetrahydro-9H-pyrido[3,4-b]indole-3-carboxylic acid amide]	30%
Cc1cc(C)c(S(=O)(=O)N2Cc3[nH]c4ccccc4c3CC2C(N)=O)c(C)c1 (stereo not shown) [v]	30%
COC(=O)C1Cc2c([nH]c3ccccc23)CN1S(=O)(=O)c1ccc(F)cc1 (racemic) [i, 2[4-fluorobenzenesulfonyl]-1,2,3,4,-tetrahydro-9H-pyrido[3,4-b]indole-3-carboxylic acid ester]	0%
COC(=O)C1Cc2c([nH]c3ccccc23)CN1S(=O)(=O)c1cccc2c(N(C)C)cccc12 (racemic) [g, 2-[dansylsulfonyl]-1,2,3,4,-tetrahydro-9H-pyrido[3,4-b]indole-3-carboxylic acid ester]	20%
COC(=O)C1Cc2c([nH]c3ccccc23)CN1S(=O)(=O)c1cccc2ccccc12 (racemic) [d, 2[1-naphthylsulfonyl]-1,2,3,4,-tetrahydro-9H-pyrido[3,4-b]indole-3-carboxylic acid ester]	20%
COC(=O)C1Cc2c([nH]c3ccccc23)CN1S(=O)(=O)c1ccc(OC)cc1 (racemic) [e]	0%
COC(=O)C1Cc2c([nH]c3ccccc23)CN1S(=O)(=O)c1ccccc1[N+](=O)[O-] (racemic) [c, 2[2, nitrobenzenesulfonyl]-1,2,3,4,-tetrahydro-9H-pyrido[3,4-b]indole-3-carboxylic acid ester]	0%
NC(=O)C1Cc2c([nH]c3ccccc23)CN1S(=O)(=O)c1cc(Cl)ccc1Cl (stereo not shown) [o, 2[-2,5-dichlorobenzenesulfonyl]-1,2,3,4,-tetrahydro-9H-pyrido[3,4-b]indole-3-carboxylic acid amide]	40%

same assay, conditions: 10 mg/kg (indomethacin)

SMILES	Antithrombotic activity (AT) (% protection)
COc1ccc2c(c1)c(CC(=O)O)c(C)n2C(=O)c1ccc(Cl)cc1 [Indomethacin, reference compound]	55 ± 15 (n = 20) %

Source: patent US7601838B2, “2-Alkyl/aryl sulphonyl-1,2,3,4-tetrahydro-9H-pyrido (3,4-b) indole-3-carboxylic acid esters/amides useful as antithrombotic agents” (Council of Scientific and Industrial Research, priority 2004, dated 2009)
